Tests used:
Human recombinant BTK = Human recombinant BTK (Homo sapiens, UniProt Q06187); assay: Human recombinant BTK enzymatic assay (Caliper LabChip); conditions: 20 μM ATP, read-out: Biochemical IC50, BTK
From the text: (§6) Product turnover was quantitated using a Caliper LabChip 3000 (Caliper Life Sciences, Hopkinton, MA, USA). Similar assays were used for other kinases (Tec kinase, interleukin [IL]-2-inducible T-cell kinase, B-lymphocyte kinase, T cell-expressed kinase, and bone marrow-expressed kinase), with ATP concentrations equal to the apparent Michaelis constant (KM^app) for each kinase. […] [^33P]-ATP was used as a substrate at a concentration equal to KM^app, and incorporation of radiolabel into peptide or protein substrates was measured.

Tec = Tec (Homo sapiens, UniProt P42680); assay: Tec kinase enzymatic assay; conditions: ATP at apparent KM; read-out: Biochemical IC50, Tec
From the text: as §6

ITK = ITK (Homo sapiens, UniProt Q08881); assay: ITK enzymatic assay; conditions: ATP at apparent KM; read-out: Biochemical IC50, ITK
From the text: as §6

Txk = Txk (Homo sapiens, UniProt P42681); assay: Txk enzymatic assay; conditions: ATP at apparent KM; read-out: Biochemical IC50, Txk
Procedure: (§7) Product turnover was quantitated using a Caliper LabChip 3000 (Caliper Life Sciences, Hopkinton, MA, USA). […] [^33P]-ATP was used as a substrate at a concentration equal to KM^app, and incorporation of radiolabel into peptide or protein substrates was measured.

FGR = FGR (Homo sapiens, UniProt P09769); assay: FGR enzymatic assay; conditions: read-out: Biochemical IC50, FGR
IGF1R = IGF1R (Homo sapiens, UniProt P08069); assay: IGF1R enzymatic assay; conditions: read-out: Biochemical IC50, IGF1R
From the text: as §6

human B cells = assay: Antigen receptor-dependent signaling and functional endpoints in human B cells (summary); assay type: cell-based; conditions: read-out: IC50, antigen receptor-dependent signaling and functional endpoints (cytokine production, co-stimulatory molecule expression, proliferation)
Ramos B cells [1] = assay: BCR-stimulated calcium flux in Ramos B cells; assay type: cell-based; conditions: Homo sapiens, BCR (anti-IgM), read-out: IC50, Ca2+ flux
Procedure: BCR-stimulated calcium flux in Ramos B cells: Human Ramos (RA1) B cells, a Burkitt’s lymphoma cell line (ATCC, CRL-1596), pre-loaded with calcium indicator dye (BD Biosciences, San Jose, CA, USA) in media containing 10% FBS, were plated on black clear-bottom assay plates at a density of 1 × 10^6 cells/mL (150,000 cells per well).

[2] = test system: human peripheral blood B cells; assay: BCR-stimulated CD86 expression on human peripheral blood B cells; assay type: cell-based; conditions: B-cell, BCR (anti-IgM)
From the text: (§1) The cells were stained with fluorescein isothiocyanate (FITC)-conjugated mouse anti-human CD20 antibody (BD Pharmingen, San Diego, CA, USA) and either allophycocyanin (APC)-conjugated mouse anti-human CD86 monoclonal antibody (BD Pharmingen) or phycoerythrin (PE)-conjugated mouse anti-human CD69 monoclonal antibody (BD Pharmingen). The amount of CD86 or CD69 expression was quantitated by median fluorescence intensity (MFI) after gating on the CD20-positive B-cell population using fluorescence-activated cell sorting (FACS) analysis. For analogous experiments measuring the effect of CD40 or Toll-like receptor 4 (TLR4) stimulation on these endpoints, either human IZ-CD40L or lipopolysaccharide (LPS) was used to stimulate the cells.

[3] = test system: CD27+CD20+ memory B cells (peripheral blood); assay: BCR-stimulated CD86 expression on memory B cells; assay type: cell-based; conditions: Homo sapiens, B-cell, BCR (anti-IgM)
From the text: as §1

human tonsillar B cells [4] = assay: BCR-stimulated TNF-α from human tonsillar B cells; assay type: cell-based; conditions: B-cell, BCR (anti-IgM)
Procedure: (§2) After 1 hour of incubation at 37°C, the cells were stimulated with 40 μg/mL AffiniPure F(ab’)2 fragment goat anti-human IgM (Jackson ImmunoResearch) and 10 ng/mL IL-4 (Peprotech). After an additional 4.5 hours of incubation, the supernatants were collected and the levels of IL-6 and TNF-α were measured using an enzyme immunoassay.

human tonsillar B cells [5] = assay: BCR-stimulated IL-6 from human tonsillar B cells; assay type: cell-based; conditions: B-cell, BCR (anti-IgM)
Procedure: as §2

[6] = test system: human peripheral blood B cells; assay: CD40L-induced CD86 expression on peripheral blood B cells; assay type: cell-based; conditions: B-cell, CD40 (CD40L)
From the text: as §1

[7] = test system: human peripheral blood B cells; assay: CD40L-induced CD69 expression on peripheral blood B cells; assay type: cell-based; conditions: B-cell, CD40 (CD40L)
From the text: as §1

[8] = test system: human peripheral blood mononuclear cells; assay: IC-stimulated TNF-α production in peripheral blood mononuclear cells; assay type: cell-based; conditions: PBMC, FcγR (immune complex)
Procedure: (§3) TNF-α and IL-6 levels were measured using enzyme-linked immunosorbent assay (ELISA; TNF-α OptEIA, BD Biosciences; IL-6 OptEIA, BD Biosciences). For analogous experiments measuring the effect of Toll-like receptor 4 stimulation on these endpoints, lipopolysaccharide (Sigma-Aldrich, St. Louis, MO, USA) was used as the stimulus.

[9] = test system: human peripheral blood mononuclear cells; assay: IC-stimulated IL-6 production in peripheral blood mononuclear cells; assay type: cell-based; conditions: PBMC, FcγR (immune complex)
Procedure: as §3

[10] = test system: human peripheral blood mononuclear cells; assay: LPS (TLR4)-stimulated TNF-α in peripheral blood mononuclear cells; assay type: cell-based; conditions: PBMC
Procedure: as §3

Ramos B cells [11] = assay: BCR-stimulated PLCγ2 phosphorylation in Ramos B cells; assay type: cell-based; conditions: Homo sapiens, anti-IgM, read-out: IC50, BTK-catalyzed phosphorylation of PLCγ2
Procedure: The cells were pelleted and lysed, and PLCγ2 levels were measured by immunoblot using rabbit anti-human phosphoY759-PLCγ2 (Cell Signaling Technology, Danvers, MA, USA) and analyzed using the Odyssey Infrared Imaging System (Li-Cor Biosciences, Lincoln, NE, USA) with normalization to an actin control to ensure consistent loading.

[12] = test system: B cells in human whole blood; assay: Human whole blood BCR-stimulated CD69 expression on B cells; assay type: cell-based; conditions: B-cell
From the text: The cells were stained with FITC-conjugated mouse anti-human CD20 (BD Pharmingen) and PE-conjugated mouse anti-human CD69 monoclonal antibody (BD Pharmingen), lysed and fixed, then washed. The amount of CD69 expression was quantitated by MFI after gating on the CD20-positive B-cell population as measured by FACS analysis.
The cells were stained with fluorescein isothiocyanate (FITC)-conjugated mouse anti-human CD20 (BD Pharmingen, San Diego, CA, USA) and phycoerythrin (PE)-conjugated mouse anti-human CD69 monoclonal antibody (BD Pharmingen), lysed, fixed, and then washed. The amount of CD69 expression was quantitated by MFI after gating on the CD20-positive B-cell population measured by FACS analysis.

[13] = test system: basophils in human whole blood; assay: Human whole blood FcεRI (anti-IgE)-stimulated CD63 expression on basophils; assay type: cell-based; conditions: read-out: IC50, FcεRI-driven CD63 surface expression on basophils
Procedure: The blood was lysed and fixed, then washed. The percentage of CD63+ cells was measured after gating on the CCR3-positive basophil population by FACS analysis.
The blood was lysed, fixed, and then washed. The percentage of CD63+ cells was measured after gating on the C-C chemokine receptor type 3-positive basophil population by FACS analysis.

[14] = test system: human monocytic osteoclast precursor cells; assay: RANK-L-induced osteoclastogenesis; assay type: cell-based; conditions: TRAP-positive multinucleated cells, 9 days in culture
Procedure: After 9 days in culture, cells were fixed and stained for tartrate-resistant acid phosphatase (TRAP; Sigma-Aldrich, St. Louis, MO, USA), and the number of TRAP-positive multinucleated cells (>2 nuclei per cell) was measured as described previously.

[15] = test system: B cells in mouse whole blood; assay: Mouse whole blood BCR-stimulated CD69 expression on B cells; assay type: cell-based
Procedure: For mouse whole blood, stimulation used AffiniPure F(ab’)2 fragment goat anti-mouse IgG + IgM (Jackson ImmunoResearch) at 200 μg/mL and 1 ng/mL mouse IL-4 (R&D Systems, Minneapolis, MN, USA) for 5 hours at 37°C with agitation. After staining with APC rat anti-mouse CD19 antibody (BD Biosciences) to identify the B cells, the amount of CD69 expression was quantitated by FACS using FITC-conjugated anti-mouse CD69 monoclonal antibody (BD Biosciences).

[16] = test system: KLH-immunized BALB/c mice; assay: Primary anti-KLH antibody responses in mice; assay type: in vivo, mouse
Procedure: Activity against a KLH-induced antibody response in mice was used as a measure of antigen-driven B-cell responses. Female BALB/c mice (8–12 weeks old) were immunized intraperitoneally (IP) with 250 μg of KLH (Pierce, Rockford, IL, USA) in phosphate-buffered saline on day 0. […] Captured anti-KLH antibodies were detected using horseradish peroxidase-conjugated antibody specific for mouse IgM or IgG (Southern Biotechnology Associates, Birmingham, AL, USA) and the 3,3′,5,5′-tetramethylbenzidine peroxidase substrate system (Kirkegaard and Perry Laboratories, Gaithersburg, MD, USA). Optical densities of developed plates were quantitated in a SpectraMax Plus ELISA plate reader (Molecular Devices, Sunnyvale, CA, USA). Sera collected from mice on day 7 or day 14 after immunization with KLH were pooled and used as a standard comparator.

CAIA BALB/c mice = assay: Collagen antibody-induced arthritis (CAIA) mouse model; assay type: in vivo
Procedure: Three days later, mice were injected IP with 1.25 mg/kg LPS from Escherichia coli O111:B4 (Sigma-Aldrich). Mice were monitored daily for development and severity of paw inflammation as described previously [24].

CIA DBA/1 mice [17] = assay: Collagen-induced arthritis (CIA) mouse model, preventative dosing, with or without MTX; assay type: in vivo
Procedure: (§4) Induction of CIA was performed as described previously. In brief, male DBA/1 mice (Harlan Laboratories, 8–10 weeks old) were injected subcutaneously at the base of the tail with bovine type II collagen (200 μg) admixed with reconstituted Sigma Adjuvant System (Sigma-Aldrich). The mice were boosted 21 days later in the same manner. […] Dosing proceeded from day 0 through study completion (36 days).
(§5) Threshold settings were optimized using histomorphometric methods.

CIA DBA/1 mice [18] = assay: CIA mouse model, therapeutic dosing, with or without etanercept; assay type: in vivo; conditions: for Clinical score reduction at end of study: therapeutic (from day 21)
Procedure: Induction of CIA was performed as described previously. In brief, male DBA/1 mice (Harlan Laboratories, 8–10 weeks old) were injected subcutaneously at the base of the tail with bovine type II collagen (200 μg) admixed with reconstituted Sigma Adjuvant System (Sigma-Aldrich). The mice were boosted 21 days later in the same manner. […]
as §5

CIA DBA/1 mice [19] = assay: CIA mouse model, preventative dosing, with or without murine CTLA-4-Ig; assay type: in vivo; conditions: BMS-986142 10 mg/kg PO QD
Procedure: as §4, §5

human tonsillar B cells [20] = assay: cells; conditions: B-cell, read-out: IC50, Proliferation
Procedure: The cells were then labeled with [^3H]-thymidine and incubated overnight at 37°C. Cells were then harvested onto filter plates and the amount of [^3H]-thymidine incorporation, as a measure of B-cell proliferation, was determined using liquid scintillation counting.

BLK = BLK (Homo sapiens, UniProt P51451); assay: BLK enzymatic assay; conditions: read-out: Biochemical IC50, BLK; ATP at apparent KM
Procedure: as §7

BMX = BMX (Homo sapiens, UniProt P51813); assay: BMX enzymatic assay; conditions: read-out: Biochemical IC50, BMX; ATP at apparent KM
Procedure: as §7

Lck = Lck (Homo sapiens, UniProt P06239); assay: Lck enzymatic assay; conditions: read-out: Biochemical IC50, Lck
CSK = CSK (Homo sapiens, UniProt P41240); assay: CSK enzymatic assay
Procedure: as §7

Src = Src (Homo sapiens, UniProt P12931); assay: Src enzymatic assay
Src, sequence (P12931 whole entry, species assumed): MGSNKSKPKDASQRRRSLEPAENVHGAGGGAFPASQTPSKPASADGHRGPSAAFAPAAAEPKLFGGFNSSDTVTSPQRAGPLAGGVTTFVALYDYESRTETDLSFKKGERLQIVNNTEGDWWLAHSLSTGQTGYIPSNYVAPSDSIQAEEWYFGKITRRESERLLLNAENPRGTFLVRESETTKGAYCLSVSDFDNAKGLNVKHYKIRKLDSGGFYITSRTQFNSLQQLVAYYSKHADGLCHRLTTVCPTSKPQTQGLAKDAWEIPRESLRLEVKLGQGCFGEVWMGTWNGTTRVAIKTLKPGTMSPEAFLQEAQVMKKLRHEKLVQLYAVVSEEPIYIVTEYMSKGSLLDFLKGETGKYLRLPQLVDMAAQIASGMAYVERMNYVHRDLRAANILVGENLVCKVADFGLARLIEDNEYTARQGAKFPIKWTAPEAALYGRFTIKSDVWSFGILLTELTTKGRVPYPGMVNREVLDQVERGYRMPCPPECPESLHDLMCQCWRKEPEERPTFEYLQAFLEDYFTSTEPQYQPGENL
From the text: as §6

Human recombinant BTK, sequence (Q06187 whole entry): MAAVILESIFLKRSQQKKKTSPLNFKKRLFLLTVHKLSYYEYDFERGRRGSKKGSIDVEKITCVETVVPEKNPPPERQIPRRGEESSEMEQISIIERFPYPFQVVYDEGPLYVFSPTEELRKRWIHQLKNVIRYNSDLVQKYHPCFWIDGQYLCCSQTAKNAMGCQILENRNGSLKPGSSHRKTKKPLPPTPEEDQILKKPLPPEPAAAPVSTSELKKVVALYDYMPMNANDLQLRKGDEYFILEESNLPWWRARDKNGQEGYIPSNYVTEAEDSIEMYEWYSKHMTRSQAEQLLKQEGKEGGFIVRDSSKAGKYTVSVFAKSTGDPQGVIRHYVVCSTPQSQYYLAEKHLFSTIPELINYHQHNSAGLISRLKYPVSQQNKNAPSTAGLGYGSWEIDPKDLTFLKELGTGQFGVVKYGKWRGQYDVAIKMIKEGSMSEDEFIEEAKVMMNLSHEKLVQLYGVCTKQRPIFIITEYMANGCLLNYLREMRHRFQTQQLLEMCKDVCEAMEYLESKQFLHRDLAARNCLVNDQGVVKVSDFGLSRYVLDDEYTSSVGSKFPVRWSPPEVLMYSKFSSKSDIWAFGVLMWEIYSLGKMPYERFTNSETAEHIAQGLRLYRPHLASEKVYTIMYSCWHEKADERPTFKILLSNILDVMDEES
IGF1R, sequence (P08069 31-1367, species assumed): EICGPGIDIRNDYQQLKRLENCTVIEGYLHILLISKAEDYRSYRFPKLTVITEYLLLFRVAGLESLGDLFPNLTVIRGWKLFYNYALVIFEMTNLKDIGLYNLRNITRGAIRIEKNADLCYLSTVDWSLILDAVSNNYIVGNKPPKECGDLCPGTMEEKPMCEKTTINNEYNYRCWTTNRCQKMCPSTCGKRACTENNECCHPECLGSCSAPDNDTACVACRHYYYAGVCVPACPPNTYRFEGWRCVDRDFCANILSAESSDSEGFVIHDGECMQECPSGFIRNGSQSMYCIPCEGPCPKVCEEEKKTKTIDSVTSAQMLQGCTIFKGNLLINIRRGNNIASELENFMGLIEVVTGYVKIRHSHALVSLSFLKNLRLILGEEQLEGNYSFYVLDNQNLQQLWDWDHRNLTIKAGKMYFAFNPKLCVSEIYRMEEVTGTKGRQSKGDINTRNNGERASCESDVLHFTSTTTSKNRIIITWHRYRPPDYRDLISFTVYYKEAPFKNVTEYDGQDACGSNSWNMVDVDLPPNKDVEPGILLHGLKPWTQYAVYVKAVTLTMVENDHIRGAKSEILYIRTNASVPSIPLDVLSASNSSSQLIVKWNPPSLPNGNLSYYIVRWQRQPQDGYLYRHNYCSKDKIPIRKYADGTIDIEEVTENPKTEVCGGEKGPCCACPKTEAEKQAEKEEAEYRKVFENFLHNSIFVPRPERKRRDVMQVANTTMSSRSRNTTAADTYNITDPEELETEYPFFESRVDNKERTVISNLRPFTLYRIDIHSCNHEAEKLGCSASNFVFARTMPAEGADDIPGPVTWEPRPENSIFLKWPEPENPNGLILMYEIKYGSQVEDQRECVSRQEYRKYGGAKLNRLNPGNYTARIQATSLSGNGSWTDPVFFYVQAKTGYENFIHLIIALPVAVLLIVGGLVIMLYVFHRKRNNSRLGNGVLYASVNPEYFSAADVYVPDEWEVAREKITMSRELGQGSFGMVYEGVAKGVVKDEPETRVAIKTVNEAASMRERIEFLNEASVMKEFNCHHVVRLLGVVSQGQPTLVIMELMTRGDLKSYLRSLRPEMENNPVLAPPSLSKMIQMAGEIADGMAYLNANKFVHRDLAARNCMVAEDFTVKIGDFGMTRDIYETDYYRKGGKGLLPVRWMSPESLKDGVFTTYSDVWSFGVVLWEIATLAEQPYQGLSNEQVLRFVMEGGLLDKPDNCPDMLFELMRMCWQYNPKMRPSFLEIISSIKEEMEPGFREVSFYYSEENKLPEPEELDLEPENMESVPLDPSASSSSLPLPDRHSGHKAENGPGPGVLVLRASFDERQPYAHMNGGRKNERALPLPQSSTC
FGR, sequence (P09769 whole entry, species assumed): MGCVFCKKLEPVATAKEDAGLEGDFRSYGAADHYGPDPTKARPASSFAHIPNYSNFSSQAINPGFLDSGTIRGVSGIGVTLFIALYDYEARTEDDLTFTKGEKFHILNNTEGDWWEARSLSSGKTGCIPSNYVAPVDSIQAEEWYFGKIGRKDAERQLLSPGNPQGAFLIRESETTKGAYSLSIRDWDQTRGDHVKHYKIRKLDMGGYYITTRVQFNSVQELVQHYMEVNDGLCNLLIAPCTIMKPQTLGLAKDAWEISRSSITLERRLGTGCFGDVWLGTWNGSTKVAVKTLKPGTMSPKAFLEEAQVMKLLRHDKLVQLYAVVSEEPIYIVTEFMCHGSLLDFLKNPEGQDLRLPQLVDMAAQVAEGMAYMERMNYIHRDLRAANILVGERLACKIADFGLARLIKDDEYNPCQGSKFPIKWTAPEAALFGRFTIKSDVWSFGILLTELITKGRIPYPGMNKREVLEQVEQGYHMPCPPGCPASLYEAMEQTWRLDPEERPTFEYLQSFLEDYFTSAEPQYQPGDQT
CSK, sequence (P41240 whole entry, species assumed): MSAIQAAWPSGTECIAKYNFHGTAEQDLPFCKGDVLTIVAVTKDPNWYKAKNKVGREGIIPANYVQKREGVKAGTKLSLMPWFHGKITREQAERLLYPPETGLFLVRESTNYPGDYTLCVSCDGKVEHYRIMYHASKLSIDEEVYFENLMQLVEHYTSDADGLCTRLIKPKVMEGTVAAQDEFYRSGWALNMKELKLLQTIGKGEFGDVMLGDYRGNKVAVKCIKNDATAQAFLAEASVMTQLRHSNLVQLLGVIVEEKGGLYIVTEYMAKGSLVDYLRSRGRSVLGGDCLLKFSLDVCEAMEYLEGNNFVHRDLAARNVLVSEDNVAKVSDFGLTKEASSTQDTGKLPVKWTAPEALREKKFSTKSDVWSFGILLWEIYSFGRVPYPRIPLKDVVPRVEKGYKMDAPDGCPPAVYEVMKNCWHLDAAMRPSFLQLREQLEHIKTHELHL
Txk, sequence (P42681 whole entry, species assumed): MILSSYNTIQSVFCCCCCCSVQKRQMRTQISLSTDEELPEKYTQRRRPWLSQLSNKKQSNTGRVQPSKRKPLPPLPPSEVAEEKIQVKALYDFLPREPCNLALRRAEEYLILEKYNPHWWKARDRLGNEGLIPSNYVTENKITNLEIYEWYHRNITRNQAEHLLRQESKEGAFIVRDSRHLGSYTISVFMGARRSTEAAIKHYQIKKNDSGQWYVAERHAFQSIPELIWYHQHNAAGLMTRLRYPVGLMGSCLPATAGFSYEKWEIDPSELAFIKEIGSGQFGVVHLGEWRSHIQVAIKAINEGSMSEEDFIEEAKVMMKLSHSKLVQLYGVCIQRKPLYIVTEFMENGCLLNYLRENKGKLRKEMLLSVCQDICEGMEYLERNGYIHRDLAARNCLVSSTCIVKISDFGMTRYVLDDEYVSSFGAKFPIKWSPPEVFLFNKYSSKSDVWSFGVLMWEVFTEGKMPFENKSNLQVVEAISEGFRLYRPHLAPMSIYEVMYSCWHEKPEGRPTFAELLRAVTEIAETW
Tec, sequence (P42680 whole entry): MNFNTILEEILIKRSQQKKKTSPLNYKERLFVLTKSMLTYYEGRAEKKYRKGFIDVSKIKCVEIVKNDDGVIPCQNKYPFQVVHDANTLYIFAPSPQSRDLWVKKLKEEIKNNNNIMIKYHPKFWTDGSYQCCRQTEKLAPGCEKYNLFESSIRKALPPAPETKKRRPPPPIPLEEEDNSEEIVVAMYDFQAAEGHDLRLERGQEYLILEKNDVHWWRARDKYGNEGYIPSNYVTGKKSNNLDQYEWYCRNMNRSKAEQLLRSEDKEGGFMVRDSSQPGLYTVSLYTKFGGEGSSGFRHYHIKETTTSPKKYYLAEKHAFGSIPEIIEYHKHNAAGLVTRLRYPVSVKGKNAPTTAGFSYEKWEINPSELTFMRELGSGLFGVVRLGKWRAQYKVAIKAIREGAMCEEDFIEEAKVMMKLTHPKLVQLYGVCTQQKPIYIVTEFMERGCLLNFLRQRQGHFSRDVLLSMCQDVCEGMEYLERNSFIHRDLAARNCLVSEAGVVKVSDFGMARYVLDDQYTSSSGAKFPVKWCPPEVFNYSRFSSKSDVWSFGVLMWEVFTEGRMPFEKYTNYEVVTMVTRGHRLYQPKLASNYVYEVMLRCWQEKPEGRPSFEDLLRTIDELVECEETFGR

Molecule `Cc1c(-c2c(F)cc(C(N)=O)c3[nH]c4c(c23)CC[C@H](C(C)(C)O)C4)cccc1-n1c(=O)c2cccc(F)c2n(C)c1=O` [BMS-986142, 6-fluoro-5-(R)-(3-(S)-(8-fluoro-1-methyl-2,4-dioxo-1,2-dihydroquinazolin-3(4H)-yl)-2-methylphenyl)-2-(S)-(2-hydroxypropan-2-yl)-2,3,4,9-tetrahydro-1H-carbazole-8-carboxamide] has an IC50 (Human recombinant BTK) of 0.5 nM, an IC50 (Tec) of 10 nM and an IC50 (ITK) of 15 nM. For the same molecule, the IC50 (Txk) was 28 nM, the IC50 (FGR) was 81 nM and the IC50 (IGF1R) was 247 nM. It also gave an IC50 (human B cells) of no more than 5 nM, an IC50 (Ramos B cells [1]) of 9 ± 5 nM and an IC50 [2] of 4 ± 3 nM. It also gave an IC50 [3] of 3 ± 3 nM, an IC50 (human tonsillar B cells [4]) of 3 ± 3 nM and an IC50 (human tonsillar B cells [5]) of 5 ± 3 nM. For the same molecule, the IC50 [6] was greater than 10000 nM, the IC50 [7] was greater than 10000 nM and the IC50 [8] was 3 ± 3 nM. The IC50 [9] was 4 ± 3 nM, the IC50 [10] was greater than 30000 nM and the IC50 (Ramos B cells [11]) was roughly 20 nM. The IC50 [12] was 90 nM, the IC50 [13] was 89 nM and the “Lowest concentration at which inhibition of RANK-L-induced osteoclastogenesis was evident” value [14] was 15 nM. The IC50 [15] was 140 nM, the “Inhibition of anti-KLH IgM response” value ([16]; 30 mg/kg PO QD, day 7) was 77% and the “Inhibition of anti-KLH IgG response” value ([16]; 30 mg/kg PO QD, day 14) was 87%. The “Anti-KLH IgM and IgG antibody responses versus vehicle” value ([16]; 10 and 30 mg/kg PO QD) was “Significant reductions”, the “Reduction of clinical scores at study end” value (CAIA BALB/c mice; 5 mg/kg, prophylactic) was 72% and the “Inhibition of clinical scores at study end” value (CAIA BALB/c mice; 20 mg/kg, prophylactic) was greater than 90%. The “Histological bone resorption and inflammation scores of hind paws” value (CAIA BALB/c mice; 5 and 20 mg/kg) was “effective at reducing bone resorption as well as inflammation scores”, the “Disease-associated increase in splenic CD138+B220low plasma cells” value (CIA DBA/1 mice [17]) was “inhibited” and the “Effect on B cell numbers” value (CIA DBA/1 mice [17]) was “did not deplete B cells”. For the same molecule, the “Expression of CD38 on plasma cells induced by disease” value (CIA DBA/1 mice [17]) was “inhibited”, the “Reduction in clinically evident disease at end of study” value (CIA DBA/1 mice [17]; 4 mg/kg PO QD) was 26% and the “Reduction in clinically evident disease at end of study” value (CIA DBA/1 mice [17]; 10 mg/kg PO QD) was 43%. For the same molecule, the “Reduction in clinically evident disease at end of study” value (CIA DBA/1 mice [17]; 30 mg/kg PO QD) was 79%, the “Serum anti-collagen II IgG titers” value (CIA DBA/1 mice [17]; 10 and 30 mg/kg) was “significantly inhibited” and the “Reduction in inflammation and bone resorption (histology)” value (CIA DBA/1 mice [17]; BMS-986142 4 mg/kg alone) was 24%. For the same molecule, the “Clinical score reduction at end of study” value (CIA DBA/1 mice [18]; 2 mg/kg) was 17%, the “Clinical score reduction at end of study” value (CIA DBA/1 mice [18]; 4 mg/kg) was 37% and the “Clinical score reduction at end of study” value (CIA DBA/1 mice [18]; 25 mg/kg) was 67%. The “Disease-induced remodeling/erosions and loss of bone mass compared with vehicle (micro-CT)” value (CIA DBA/1 mice [18]; therapeutic, 2, 4 and 25 mg/kg) was “dose-dependent protection”, the “Reduction of clinical scores” value (CIA DBA/1 mice [19]) was 46% and the IC50 (human tonsillar B cells [20]) was 3 ± 1 nM. It also gave an IC50 (BLK) of 23 nM, an IC50 (BMX) of 32 nM and an IC50 (Lck) of 71 nM. It also gave an IC50 (CSK) of 148 nM and an IC50 (Src) of 1110 nM.

With `CN(Cc1cnc2nc(N)nc(N)c2n1)c1ccc(C(=O)N[C@@H](CCC(=O)O)C(=O)O)cc1` [MTX, methotrexate, reference compound] the “Reduction in inflammation and bone resorption (histology)” value (CIA DBA/1 mice [17]; MTX alone) was 10%.
